Common to all, as to type: in vivo
The test system of test [1] is collagen-induced platelet aggregation. Description: Collagen-induced platelet aggregation rate trial in rabbits. The conditions noted are these: collagen 5 μg/ml; dose 60 mg/kg intragastrically once a day for 7 d. How it is done:
(§1) The rabbits were randomly grouped into 4 groups: the model group was given with distilled water, the aspirin group ([…]), Extract A groups of low dose and high dose at 42 and 84 mg/kg (respectively 1 2 times of clinic equivalent dosage), intragastrically administrated, once a day for 7 consecutive days. The volume of medicine administrated was 1 ml/kg body weight. 60 min after intragastric administration on 7th day, the animals were anesthetized locally, blooded through carotid artery, anticoagulated with sodium citrate (3.8%) 1:9 and centrifugated at 1000 r/min for 10 min. Platelet-rich plasma (PRP) was taken and the remain centrifugated at 3000 r/min to take platelet-poor plasma (PPP. Aggregation was induced by ADP (final concentration 3 μg/ml), AA (final concentration 80 μg/ml) and collagen (5 μg/ml). […] platelet aggregation & coagulation factor analyzer was used to measure the maximum platelet aggregation rate and to calculate inhibition rate according to following formula. [formula]

Test [2] relates to ADP-induced platelet aggregation. Description: ADP-induced platelet aggregation rate trial in rabbits. Conditions: ADP final 3 μg/ml; dose 60 mg/kg intragastrically once a day for 7 d. How it is done: as §1
The subject of test [3] is AA-induced platelet aggregation. Description: AA-induced platelet aggregation rate trial in rabbits. Conditions: AA final 80 μg/ml; dose 60 mg/kg intragastrically once a day for 7 d. How it is done: as §1

Experimental findings from patent publication USRE49035E1, “Traditional Chinese medicine composition, and preparation and application thereof” (Tasly Pharmaceutical Group Co., Ltd., priority 2013, dated 2022) are described below.

As for `CC(=O)Oc1ccccc1C(=O)O` [Aspirin], the values for the Platelet aggregation rate in test [1], in test [2] and in test [3] were 6.06 ± 2.07 %, 19.15 ± 4.08 % and 5.80 ± 1.85 %, respectively.
